Consider 2 molecules from patent US20250215403A1, “Compositions and Methods for Cardiac Tissue Regeneration” (Temple University - Of The Commonwealth System Of Higher …, priority 2022, published 2025).

In data set [1] the test system is cardiomyocytes (CM). Put plainly: Mouse MI model: TUNEL staining of CM apoptosis. Conditions: SSP gene modRNA delivery; 7 days post-MI. The data set is classed as in vivo. How it is done:
(§1) All surgical and experimental procedures with mice were performed in accordance with protocols approved by Institutional Animal Care and Use Committees at Temple University Animal Care and Use Committee (IACUC). C57BL6 or CM-specific MADM mice (8-12-weeks-old) were anesthetized with isoflurane. MI was induced by permanent ligation of the LAD, as previously described (Garikipati, V. N. S., et al., 2019, Nature Communications, 10:4317). Briefly, the left thoracic region was shaved and sterilized. After intubation, the heart was exposed through a left thoracotomy. A suture was placed to ligate the LAD. The thoracotomy and skin were sutured closed in layers. Excess air was removed from the thoracic cavity, and the mouse was removed from ventilation when normal breathing was established. In order to determine the effect of modRNA on cardiovascular outcome after MI, modRNAs (100 μg/heart) were injected into the infarct zone immediately after LAD ligation (Magadum A., et al., Circulation. 2020, 141 (15): 1249-1265). For examination of heart histology, hearts were collected at the end of each study, quickly washed in PBS, weighed, and fixed in 4% PFA for cryo-sectioning and immunostainings. In all experiments, the surgeon was blinded to the treatment group. For assessment of heart histology, hearts were collected at the end of each study. The hearts were excised, briefly washed in PBS, perfused with perfusion buffer, weighed and fixed in 4% PFA at 4° C. overnight. The heart blocks were transverse sectioned at 6-8 μm using cryostat. The heart sections were further processed for histological evaluation using immunostaining (see below) or histological scar staining using Masson's trichrome staining kit (Sigma) according to standard procedures. Measuring the ratio of heart weight to body weight was done using a scale. This ratio was calculated as the heart tissue weight relative to the mouse total body weight in grams (g).
Mice hearts were harvested, weighed, and fixed in 4% PFA/PBS overnight on shaker and then washed with PBS for 1 hour and incubated in 30% sucrose/PBS at 4° C. for 12-18 hours. Hearts were then fixed in OCT and frozen at −80° C. (Magadum A., et al., Circulation. 2020, 141 (15): 1249-1265). Transverse heart sections (6-8 μm) were made using a cryostat. […] For immunostaining with wheat germ agglutinin (WGA) for CM size quantification, images were captured at 40× magnification, and ImageJ was used to determine the area of each cell. Quantitative analyses involved counting of multiple fields from 5-8 mouse hearts per group, and 3-4 sections/heart (˜50 cells per field assessed, for a total ˜250 cells per sample). […] BrdU positive CMs were counted in multiple fields from three independent samples per group and 3 sections/heart. […]

Data set [2] deals with cardiomyocytes (CM). The data set is described as follows: Mouse MI model: immunostaining of heart sections for CM cell cycle markers (ki67, pH3, BrdU, Aurora B). The data set is classed as in vivo. The settings on record: SSP gene modRNA delivery; 7 days post-MI. The protocol:
as §1
Mice were injected with AAV9-GFP or AAV9-YAP1-shRNA (GeneCopoeia) through retro-orbital injection 7 days before LAD. A total of 5×10^11 viral genomes (50 μl total volume delivered) was injected per mouse. The level of YAP1 inhibition was determined at the mRNA level by qPCR 14 days post injection.
Mice hearts were harvested, weighed, and fixed in 4% PFA/PBS overnight on shaker and then washed with PBS for 1 hour and incubated in 30% sucrose/PBS at 4° C. for 12-18 hours. Hearts were then fixed in OCT and frozen at −80° C. (Magadum A., et al., Circulation. 2020, 141 (15): 1249-1265). Transverse heart sections (6-8 μm) were made using a cryostat. Frozen sections were rehydrated in PBS for 5-10 min followed by permeabilization with PBS with 0.1% Triton™ X100 (PBST) for 7-8 min. Heart sections were then treated with 3% H2O2 for 5 min and washed (3×5 min) with PBST. The samples were then blocked with PBS+10% Donkey normal serum+0.1% Triton™ X100 (PBSST) for 1 hour at room temperature. Primary antibodies (see complete list of primary antibodies used for this Example in Table 2 below) diluted in PBST were added and incubated overnight at 4° C. Slides were washed with PBST (3×5 min) followed by incubation with a secondary antibody (Invitrogen, 1:200) diluted in PBST for 90-120 min at room temperature. The samples were further washed with PBST (3×5 min) and stained with DAPI or Hoechst 33342 (1 μg/ml) diluted in PBST for 7 min. After being washed with PBST (3×7 min) and tap water (1×5 min) slides were mounted with mounting medium (VECTASHIELD®) for imaging (Magadum A., et al., Circulation. 2020, 141 (15): 1249-1265). Stained slides were stored at 4° C. All staining was performed on 4-8 hearts/group, with 2-3 sections/heart. For immunostaining with wheat germ agglutinin (WGA) for CM size quantification, images were captured at 40× magnification, and ImageJ was used to determine the area of each cell. […]

As to “PHGDH: modRNA encoding phosphoglycerate dehydrogenase (ORF SEQ ID NO: 6)”, the “CM apoptosis (TUNEL+ CMs)” value with cardiomyocytes (CM) [1] is reported as “inhibited”. Also, the “CM cell cycle (pH3+ CMs)” value in the data set with cardiomyocytes (CM) [2] is given as “partially induced”.

B1: PSPH: modRNA encoding phosphoserine phosphatase (ORF SEQ ID NO: 5) (nucleic acid)
DNA: ATGGTCTCCCACTCAGAGCTGAGGAAGCTCTTCTGTTCAGCGGATGCAGTGTGCTTTGATGTTGATAGCACCGTCATCAGAGAAGAAGGAATCGATGAGCTGGCCAAATTCTGTGGTGTGGAGGCCGCAGTGTCTGAAATGACACGGAGAGCCATGGGAGGAGCATTGCCTTTTAAAGACGCGCTCACTCAGCGCCTGGCACTGATCCAGCCCTCCAGGGATCAAGTCCAGAGGCTCCTAGCTGAGCACCCGCCACATCTGACTCCTGGCATAAGGGAGCTGGTAAGCCGCCTCCAGGAGCGTAATGTCCAGGTGTTCCTCATCTCTGGTGGCTTTCGGAGCATTGTGGAGCACGTTGCTGCAAAGCTCAATATCCCAACAACCAATGTGTTTGCCAATAGGCTGAAGTTCTACTTTAATGGTGAGTACGCAGGTTTTGATGAGATGCAGCCGACAGCCGAGTCGGGTGGGAAAGGAAAGGTTATTCGGTTTTTAAAGGAAAAATTTCACTTTAAGAAAATAATCATGATTGGAGATGGAGCTACGGACATGGAAGCCTGTCCTCCTGCTGATGCTTTCATTGGCTTTGGAGGCAATGTGATCAGGCAGCAGGTTAAGGACAACGCCAAGTGGTACATCACTGACTTCGTGGAGCTGCTGGGAGAACTGGAGGAGTGA
modifications: modRNA
As for B1, the “CM apoptosis (TUNEL+ CMs)” value in the data set on cardiomyocytes (CM) [1] is reported as “inhibited”. In the data set on cardiomyocytes (CM) [2], the “CM cell cycle (pH3+ CMs)” value is given as “partially induced”.
